Test results as given in PubChem BioAssay (NCI).
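Five compound concentrations were applied to cells in 96-well plates for 48 hours; endpoints were derived by simple linear interpolation of the resulting dose-response curve. TGI denotes the concentration required for complete inhibition of growth.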

Key:
Assay in all cases: NCI anticancer screen, dose series, 48 h
BT-549 breast = tested on: BT-549 breast
CAKI-1 renal = tested on: CAKI-1 renal
COLO 205 colon = tested on: COLO 205 colon
HCT-116 colon = tested on: HCT-116 colon
HCT-15 colon = tested on: HCT-15 colon
HS 578T breast = tested on: HS 578T breast
IGROV1 ovarian = tested on: IGROV1 ovarian
LOX IMVI melanoma = tested on: LOX IMVI melanoma
MDA-MB-231 breast = tested on: MDA-MB-231 breast
MDA-MB-435 = tested on: MDA-MB-435
NCI-H226 lung = tested on: NCI-H226 lung
NCI/ADR-RES ovarian = tested on: NCI/ADR-RES ovarian
OVCAR-4 ovarian = tested on: OVCAR-4 ovarian
RXF 393 renal = tested on: RXF 393 renal
SK-MEL-2 melanoma = tested on: SK-MEL-2 melanoma
SK-MEL-28 melanoma = tested on: SK-MEL-28 melanoma
TK-10 renal = tested on: TK-10 renal
UACC-257 melanoma = tested on: UACC-257 melanoma
UACC-62 melanoma = tested on: UACC-62 melanoma
HL-60(TB) leukemia = tested on: HL-60(TB) leukemia

| SMILES | TGI (BT-549 breast) [µM] | TGI (CAKI-1 renal) [µM] | TGI (COLO 205 colon) [µM] | TGI (HCT-116 colon) [µM] | TGI (HCT-15 colon) [µM] | TGI (HS 578T breast) [µM] | TGI (IGROV1 ovarian) [µM] | TGI (LOX IMVI melanoma) [µM] | TGI (MDA-MB-231 breast) [µM] | TGI (MDA-MB-435) [µM] | TGI (NCI-H226 lung) [µM] | TGI (NCI/ADR-RES ovarian) [µM] | TGI (OVCAR-4 ovarian) [µM] | TGI (RXF 393 renal) [µM] | TGI (SK-MEL-2 melanoma) [µM] | TGI (SK-MEL-28 melanoma) [µM] | TGI (TK-10 renal) [µM] | TGI (UACC-257 melanoma) [µM] | TGI (UACC-62 melanoma) [µM] | TGI (HL-60(TB) leukemia) [µM] |
| --- | --- | --- | --- | --- | --- | --- | --- | --- | --- | --- | --- | --- | --- | --- | --- | --- | --- | --- | --- | --- |
| CCCN(CCCc1ccccc1)CCc1ccc2[nH]c(=S)[nH]c2c1 | > 100 | > 100 | 42.6 | > 100 | > 100 | > 100 | 79.9 | > 100 | > 100 | 41.8 | > 100 | > 100 | > 100 | 76.1 | 38.4 | 51.5 | > 100 | 44.3 | 74.4 |  |
| CN1CCN(c2ncc3c(n2)sc2c(=O)n(-c4ccccc4)cnc23)CC1 | > 100 | > 100 | > 100 | > 100 | > 100 | > 100 | > 100 | > 100 | > 100 | > 100 | > 100 | > 100 | > 100 | > 100 | > 100 | > 100 | > 100 | > 100 | > 100 |  |
| CCOC(=O)c1c(N)sc2c1C(C)(C(=O)OCC)CC2 (centres undefined) | > 100 |  | > 100 | > 100 | > 100 | > 100 | > 100 |  | > 100 |  | > 100 |  |  | > 100 | > 100 | > 100 | > 100 | > 100 | > 100 | > 100 |
| CCOP(=O)(OCC)C(C)(CC)N/C(=N/C(NC(C)=O)(C(F)(F)F)C(F)(F)F)NC1=NC(C(F)(F)F)(C(F)(F)F)N=C(C(F)(F)F)O1 (centres undefined) |  | > 100 | 29.8 | > 100 | > 100 | > 100 | > 100 | > 100 | 48.7 | > 100 | 70.1 | 47.4 | 84.2 | 93.8 | 62.3 | > 100 | > 100 | 94.8 | > 100 | 45.8 |
| Cc1cn(C2CC(O)C(COC(=O)NCCC(F)(F)C(F)(F)C(F)(F)C(F)(F)F)O2)c(=O)[nH]c1=O (centres undefined) | > 100 | > 100 | > 100 | > 100 |  | > 100 | > 100 |  | > 100 | > 100 | > 100 |  | > 100 | > 100 |  | > 100 | > 100 | > 100 | > 100 | > 100 |
| O=C1NC(=S)N/C1=C\c1ccc(Br)s1 | > 100 | > 100 | > 100 | > 100 | > 100 | > 100 | > 100 | > 100 | > 100 | > 100 | > 100 |  | > 100 | > 100 | > 100 | > 100 | > 100 | > 100 | > 100 | > 100 |
| CCOP(=O)(OCC)C(Nc1ccc(Br)cc1)c1cccc([N+](=O)[O-])c1 (centres undefined) |  | 49.7 | 26 | 25.6 | 31.7 | 61.1 | 76.5 | 23.3 | 43.2 | 36.7 | 38.3 | 44.8 | > 100 | 31.5 | 31.4 | 60 | 88.1 |  | 29.6 | 55.1 |
| CN(C)C(=S)/N=c1\ssc(=S)n1Cc1cccnc1 |  | > 100 | 32.1 | > 100 | > 75 | > 100 | > 100 | > 100 | > 100 | 1.57 | > 100 | 4.51 | > 100 | 17.8 | > 35.8 | > 100 | > 100 | > 95.5 | > 67.7 | > 57.8 |
| CC[C@@H]1CC[C@@H]2[C@H](CC[C@]3(C)[C@@H](OS(=O)(=O)c4ccc(C)cc4)CC[C@@H]23)[C@H]1COS(=O)(=O)c1ccc(C)cc1 | > 100 |  |  | > 100 | > 100 | > 100 | > 100 | > 100 |  | > 100 | > 100 | > 100 | > 100 | > 100 |  | > 100 | > 100 | > 100 |  | > 100 |
| CCOC(=O)Cn1c(=O)c2nc(SC)sc2n(CC)c1=S |  |  | > 100 | > 100 | > 100 | 95.8 | > 100 | > 100 | > 100 | 3.2 | > 100 | > 100 | > 100 | > 100 | > 100 | > 100 | > 100 | > 100 |  | > 100 |
| CCCCCCCCCCCCCCCCOCC(CC(F)(F)P(=O)(OCC)OCC)OC(C)=O (centres undefined) | 28.8 | 30.3 | 32.5 | 17 | 20.2 |  | 21.8 |  | 30.1 | 33.9 | 28.7 | 32.4 | 29.3 | 38.5 | 35.9 | 32.4 | 27.3 | 33 | 30.2 |  |
| Cn1c(O)c(C=Nc2ccccc2[N+](=O)[O-])c(=O)n(C)c1=O | > 100 | > 100 | > 100 | > 100 | > 100 | > 100 | > 100 | > 100 | > 100 | > 100 | > 100 | > 100 | > 100 | > 100 | > 100 |  | > 100 | > 100 | > 100 |  |
| CN1CNc2nc(N)n(C)c(=O)c2C1 | > 10 |  |  |  | > 10 |  | > 10 |  |  | > 10 | > 10 | > 10 | > 10 | > 10 | > 10 |  | > 10 | > 10 | > 10 | > 10 |
